This is an account of results in ChEMBL document CHEMBL3992494, “Amaryllidaceae alkaloids with new framework types from Zephyranthes candida as potent acetylcholinesterase inhibitors” (Eur J Med Chem, 2017).

Structures are written as SMILES. Activity calls are given as the source filed them. No cut-off for these calls is given here.

Assay [1] addresses Acetylcholinesterase (Electrophorus electricus) (UniProt O42275). The assay can be described thus: Inhibition of electric eel AChE at 200 uM using acetylthiocholine iodide as substrate measured every minute for fifteen minutes by Ellman's method. (In general: Ellman's reagent forms a yellow product with free thiols.)
Another assay has as its target Acetylcholinesterase (Electrophorus electricus, UniProt O42275). Briefly: Inhibition of electric eel AChE using acetylthiocholine iodide as substrate measured every minute for fifteen minutes by Ellman's method.

Acetylcholinesterase (Electrophorus electricus), sequence (O42275 24-633 limits assumed): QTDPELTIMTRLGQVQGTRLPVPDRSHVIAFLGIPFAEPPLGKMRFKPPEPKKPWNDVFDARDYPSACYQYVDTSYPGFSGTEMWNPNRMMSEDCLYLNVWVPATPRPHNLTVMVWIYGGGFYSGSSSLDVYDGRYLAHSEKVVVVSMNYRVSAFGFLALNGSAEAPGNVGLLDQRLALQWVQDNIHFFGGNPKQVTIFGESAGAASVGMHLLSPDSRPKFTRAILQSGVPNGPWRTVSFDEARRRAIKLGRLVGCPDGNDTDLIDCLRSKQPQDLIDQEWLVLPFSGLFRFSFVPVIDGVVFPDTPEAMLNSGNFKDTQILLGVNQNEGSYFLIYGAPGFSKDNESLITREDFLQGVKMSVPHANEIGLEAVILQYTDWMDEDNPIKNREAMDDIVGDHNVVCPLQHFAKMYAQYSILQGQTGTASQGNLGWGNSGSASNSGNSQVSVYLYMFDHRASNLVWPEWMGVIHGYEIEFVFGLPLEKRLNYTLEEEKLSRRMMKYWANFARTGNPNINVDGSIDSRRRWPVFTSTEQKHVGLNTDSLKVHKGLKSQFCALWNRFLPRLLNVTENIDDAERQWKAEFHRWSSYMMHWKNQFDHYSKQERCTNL
Acetylcholinesterase, sequence (O42275 whole entry): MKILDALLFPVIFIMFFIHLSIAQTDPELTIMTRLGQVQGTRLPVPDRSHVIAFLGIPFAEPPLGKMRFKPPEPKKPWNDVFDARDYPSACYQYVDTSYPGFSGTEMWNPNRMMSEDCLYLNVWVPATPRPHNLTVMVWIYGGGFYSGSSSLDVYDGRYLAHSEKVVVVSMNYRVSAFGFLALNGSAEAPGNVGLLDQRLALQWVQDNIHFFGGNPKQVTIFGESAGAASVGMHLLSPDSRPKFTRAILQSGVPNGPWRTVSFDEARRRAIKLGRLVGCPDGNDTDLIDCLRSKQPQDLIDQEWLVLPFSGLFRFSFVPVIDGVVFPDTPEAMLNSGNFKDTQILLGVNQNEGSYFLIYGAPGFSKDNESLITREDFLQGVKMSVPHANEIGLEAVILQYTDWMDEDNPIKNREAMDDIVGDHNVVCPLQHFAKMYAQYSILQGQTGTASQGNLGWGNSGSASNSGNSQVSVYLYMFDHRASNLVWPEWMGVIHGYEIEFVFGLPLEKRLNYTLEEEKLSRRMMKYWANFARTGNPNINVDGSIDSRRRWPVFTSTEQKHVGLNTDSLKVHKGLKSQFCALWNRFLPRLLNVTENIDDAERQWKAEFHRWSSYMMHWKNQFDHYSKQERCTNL

Turning to `CO[C@H]1C=C[C@@]2(c3ccc(O)cc3)CCN[C@H]2C1`, the inhibition result in assay [1] is “inactive”.
In the case of `CNc1ccc(COC)cc1-c1cc2c(cc1CO)OCO2`, inhibition on Acetylcholinesterase was half-maximal at 8.82 µM (IC50). This counts as single-digit micromolar.
As for `COc1cc([C@@H]2[C@H](O)CC=C3CCN(C)[C@H]32)cc(OC)c1OC`, the inhibition result in assay [1] is “inactive”.

Broadly, the IC50 is the concentration needed to halve the response being measured. A higher IC50 goes with weaker potency.
